pIC50: −log10 of the molar value. Starred links: 1 amine or outer side, 2 acyl side, 3 side chain; linkers in the order of their positions; H or OH if unused. Positions of bridges follow the written chain, without caps; N, C: chain ends. Non-standard residues stand in square brackets, D forms with d. Residues, ends and D or L forms follow the SMILES beside them. NMeTrp(1-Me) = CN[C@@H](Cc1cn(C)c2ccccc12)C(=O)O; Phe(4-COOH) = N[C@@H](Cc1ccc(C(=O)O)cc1)C(=O)O; Trp(5-F) = N[C@@H](Cc1c[nH]c2ccc(F)cc12)C(=O)O; Trp(6-F) = N[C@@H](Cc1c[nH]c2cc(F)ccc12)C(=O)O; Trp(1-Me) = Cn1cc(C[C@H](N)C(=O)O)c2ccccc21; Asp(3,3-Me2) = CC(C)(C(=O)O)[C@H](N)C(=O)O; mXylylene(5-F) = Fc1cc(C[*:1])cc(C[*:2])c1; Leu(3R-OH) = CC(C)[C@@H](O)[C@H](N)C(=O)O; Pro(cis-4-F) = O=C(O)[C@@H]1C[C@H](F)CN1; X13 = O=C(CCCCc1cccc(CCCCN[*:1])c1)[*:2]; 2Nal = N[C@@H](Cc1ccc2ccccc2c1)C(=O)O; X23 = CC[C@@]1(C(=O)[*:2])CCCN1[*:1]; mXylylene = c1cc(C[*:1])cc(C[*:2])c1; NMeY = CN[C@@H](Cc1ccc(O)cc1)C(=O)O; Val(3-OH) = CC(C)(O)[C@H](N)C(=O)O; NMeT = CN[C@H](C(=O)O)[C@@H](C)O; β3hT = C[C@@H](O)[C@H](N)CC(=O)O; aThr = C[C@H](O)[C@H](N)C(=O)O; NMeL = CN[C@@H](CC(C)C)C(=O)O; dNMeL = CN[C@H](CC(C)C)C(=O)O; αMeP = C[C@@]1(C(=O)O)CCCN1; Nva = CCC[C@H](N)C(=O)O; Ahx = NCCCCCC(=O)O; Mpa = O=C(O)CCS

The record followed here is patent publication US11530244B2, “Cyclic polypeptides for PCSK9 inhibition” (priority 2018, dated 2022).

For test [1], the target named is human PCSK9 / human LDLR EGFa domain interaction (Homo sapiens (Human), UniProt Q8NBP7). The experiment in a line: TR-FRET assay of inhibition of the PCSK9-LDLR protein-protein interaction. The class given is binding. The following applies: TR-FRET, 20 nM human PCSK9, 20 nM human LDLR EGFa domain, 2 hours room temperature; read-out: IC50. The method, boiled down: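 Avitag-biotinylated human PCSK9 (20 nM) and his-tagged human LDLR EGFa domain (20 nM) were incubated with 5 nM Ulight streptavidin and 5 nM europium anti-6×His for 2 h at room temperature. Buffer: 50 mM HEPES, 150 mM NaCl, 5 mM CaCl2, 0.01% BSA, 0.01% P20. IC50 from 4-parameter fit of dose-response.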

Test [2] deals with PCSK9 (Homo sapiens (Human), UniProt Q8NBP7). The experiment in a line: PCSK9 Alexa FRET Standard assay (displacement of AlexaFluor647 tagged cyclic peptide Reagent A). Format: binding. The settings on record: PCSK9 Alexa FRET Standard assay, 0.5 nM PCSK9, 20 nM AF cyclic peptide Reagent A; read-out: IC50. Summed up:
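TR-FRET displacement: 0.5 nM biotinylated PCSK9 with 1.25 nM Strep-Eu and 20 nM AlexaFluor-tagged cyclic peptide (final) in 50 mM HEPES pH 7.4, 0.15 M NaCl, 5 mM CaCl2, 0.01% BSA, 0.01% P20, ≥2 h at room temperature. IC50 from sigmoidal fit, converted to Ki via peptide KD; falling Eu counts flagged false positives.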

Chain of PCSK9 (Q8NBP7 153-692): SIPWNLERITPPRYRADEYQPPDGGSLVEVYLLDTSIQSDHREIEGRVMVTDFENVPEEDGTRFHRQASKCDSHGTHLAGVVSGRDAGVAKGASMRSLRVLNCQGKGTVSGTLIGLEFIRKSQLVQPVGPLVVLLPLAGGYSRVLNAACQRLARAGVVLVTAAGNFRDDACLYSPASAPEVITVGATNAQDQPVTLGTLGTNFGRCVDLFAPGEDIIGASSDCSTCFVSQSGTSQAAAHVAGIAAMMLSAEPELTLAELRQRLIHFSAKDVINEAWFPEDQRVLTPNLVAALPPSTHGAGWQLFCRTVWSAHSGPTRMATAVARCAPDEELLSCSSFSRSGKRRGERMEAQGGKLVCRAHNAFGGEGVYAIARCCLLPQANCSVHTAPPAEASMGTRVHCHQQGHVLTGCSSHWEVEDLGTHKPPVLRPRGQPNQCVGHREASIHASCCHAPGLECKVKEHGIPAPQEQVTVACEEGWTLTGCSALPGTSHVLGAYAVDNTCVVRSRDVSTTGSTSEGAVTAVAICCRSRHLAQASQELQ
Chain of human PCSK9 / human LDLR EGFa domain interaction (Q8NBP7 153-692): as above
Chain of human PCSK9 / human LDLR EGFa domain interaction (Q8NBP7 31-152 partner): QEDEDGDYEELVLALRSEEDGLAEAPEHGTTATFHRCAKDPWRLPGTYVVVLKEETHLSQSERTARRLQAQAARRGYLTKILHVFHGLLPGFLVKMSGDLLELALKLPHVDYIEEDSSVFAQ

As to `COc1ccc(C[C@@H]2NC(=O)CCSCc3cccc(c3)CSC[C@@H](C(N)=O)NC(=O)[C@]3(C)CCCN3C(=O)[C@H](Cc3ccc(OC)cc3)NC(=O)[C@H]([C@@H](C)OC)NC(=O)[C@H](CC(C)C)N(C)C(=O)[C@H](Cc3ccc(OC)cc3)NC(=O)[C@H](Cc3ccc(OC)cc3)N(C)C(=O)[C@@H](CC(C)C)NC2=O)cc1` [Compound 036] ([Mpa]Y(Me)[dL][NMeY](Me)Y(Me)[NMeL]T(Me)Y(Me)[αMeP]C-NH2; linker 1-10 via mXylylene), the pIC50 (as a rule, the negative decadic logarithm of the IC50, by convention in mol/L) is 7.00 to 10.00 in test [1] and 7.00 to 9.96 in test [2].
In the same order, the values of `CCC[C@@H]1NC(=O)CCSCc2cccc(c2)CSC[C@@H](C(N)=O)NC(=O)[C@@H]2CCCN2C(=O)[C@H](Cc2ccc(OC)cc2)NC(=O)[C@H]([C@@H](C)OC)NC(=O)[C@@H]2CCCN2C(=O)[C@H](Cc2cn(C)c3ccccc23)N(C)C(=O)[C@H](Cc2ccc3ccccc3c2)NC(=O)[C@@H](CC(C)C)N(C)C1=O` [Compound 038] ([Mpa][Nva][dNMeL][2Nal][NMeTrp(1-Me)]PT(Me)Y(Me)PC-NH2; linker 1-10 via mXylylene) are 7.00 to 10.00 and 7.00 to 9.96.
On to `C[C@H]1NC(=O)[C@H](CCCCN)NC(=O)CCSCc2cc(F)cc(c2)CSC[C@@H](C(N)=O)NC(=O)[C@]2(C)CCCN2C(=O)[C@H](Cc2ccc(O)cc2)NC(=O)[C@H]([C@@H](C)O)NC(=O)[C@@H]2CCCN2C(=O)[C@H](Cc2c[nH]c3ccc(F)cc23)NC(=O)[C@H](Cc2c[nH]c3ccc(F)cc23)NC1=O` [Compound 042] ([Mpa]K[dA][Trp(5-F)][Trp(5-F)]PTY[αMeP]C-NH2; linker 1-10 via mXylylene(5-F)), for which the pIC50 was 4.30 to 4.68 in test [1] and 4.92 to 6.00 in test [2].
The matching figures for `C[C@@H](O)[C@@H]1NC(=O)[C@@H]2CCCN2C(=O)[C@H](Cc2c[nH]c3ccc(F)cc23)NC(=O)[C@H](Cc2c[nH]c3ccc(F)cc23)NC(=O)CNC(=O)[C@H](CCCCN)NC(=O)CCSCc2cc(F)cc(c2)CSC[C@@H](C(N)=O)NC(=O)[C@]2(C)CCCN2C(=O)[C@H](Cc2ccc(O)cc2)NC1=O` [Compound 043] ([Mpa]KG[Trp(5-F)][Trp(5-F)]PTY[αMeP]C-NH2; linker 1-10 via mXylylene(5-F)): 6.00 to 7.00 and 6.00 to 7.00.
For the compound `C[C@H]1NC(=O)[C@H](CCCCN)NC(=O)CCSCc2cccc(c2)CSC[C@@H](C(N)=O)NC(=O)[C@]2(C)CCCN2C(=O)[C@H](Cc2ccc(O)cc2)NC(=O)[C@H]([C@@H](C)O)NC(=O)[C@@H]2CCCN2C(=O)[C@H](Cc2c[nH]c3ccc(F)cc23)NC(=O)[C@H](Cc2c[nH]c3ccc(F)cc23)NC1=O` [Compound 044] ([Mpa]K[dA][Trp(5-F)][Trp(5-F)]PTY[αMeP]C-NH2; linker 1-10 via mXylylene), the pIC50 in test [1] and in test [2] was 6.00 to 7.00 in each case.
In the case of `CC[C@@]12CCCN1C(=O)[C@H](Cc1ccc(O)cc1)NC(=O)[C@H]([C@@H](C)O)NC(=O)[C@@H]1CCCN1C(=O)[C@H](Cc1c[nH]c3ccc(F)cc13)NC(=O)[C@H](Cc1c[nH]c3ccc(F)cc13)NC(=O)CNC(=O)[C@H](CCCCN)NC(=O)CCSCc1cccc(c1)CSC[C@@H](C(N)=O)NC2=O` [Compound 045] ([Mpa]KG[Trp(5-F)][Trp(5-F)]PTY[X23]C-NH2; linker 1-10 via mXylylene), the pIC50 in test [1] and in test [2] was 4.92 to 6.00 in each case.
On to `CCC[C@@H]1NC(=O)CCSCc2cccc(c2)CSC[C@@H](C(N)=O)NC(=O)[C@@H]2CCCN2C(=O)[C@H](Cc2ccc(OC)cc2)NC(=O)[C@H]([C@@H](C)OC)N(C)C(=O)[C@@H]2CCCN2C(=O)[C@H](Cc2cn(C)c3ccccc23)NC(=O)[C@H](Cc2ccc3ccccc3c2)NC(=O)[C@@H](CC(C)C)N(C)C1=O` [Compound 046] ([Mpa][Nva][dNMeL][2Nal][Trp(1-Me)]P[NMeT](Me)Y(Me)PC-NH2; linker 1-10 via mXylylene), for which the results for the pIC50 in test [1] and in test [2] were 7.00 to 10.00 and 7.00 to 9.96, respectively.
The matching figures for `COc1ccc(C[C@@H]2NC(=O)[C@H]([C@@H](C)O)NC(=O)[C@@H]3CCCN3C(=O)[C@H](Cc3c[nH]c4ccc(F)cc34)NC(=O)[C@H](Cc3c[nH]c4ccc(F)cc34)NC(=O)[C@@H](C)NC(=O)[C@H](C)NC(=O)CCCCc3cccc(c3)CCCCNC(=O)[C@@H]3CCCN3C2=O)cc1` [Compound 047] (cyclo(A[dA][Trp(5-F)][Trp(5-F)]PTY(Me)P[X13])): 6.00 to 7.00 and 6.00 to 7.00.
On to `CC(C)(O)[C@@H]1NC(=O)[C@@H]2CCCN2C(=O)[C@H](Cc2c[nH]c3ccc(F)cc23)NC(=O)[C@H](Cc2c[nH]c3ccc(F)cc23)NC(=O)CNC(=O)[C@H](CCCCN)NC(=O)CCSCc2cccc(c2)CSC[C@@H](C(N)=O)NC(=O)[C@]2(C)CCCN2C(=O)[C@H](Cc2ccc(O)cc2)NC1=O` [Compound 048] ([Mpa]KG[Trp(5-F)][Trp(5-F)]P[Val(3-OH)]Y[αMeP]C-NH2; linker 1-10 via mXylylene), for which the pIC50 in test [1] and in test [2] was 6.00 to 7.00 throughout.
Take `CC(C)[C@@H](O)[C@@H]1NC(=O)[C@@H]2CCCN2C(=O)[C@H](Cc2c[nH]c3ccc(F)cc23)NC(=O)[C@H](Cc2c[nH]c3ccc(F)cc23)NC(=O)CNC(=O)[C@H](CCCCN)NC(=O)CCSCc2cccc(c2)CSC[C@@H](C(N)=O)NC(=O)[C@]2(C)CCCN2C(=O)[C@H](Cc2ccc(O)cc2)NC1=O` [Compound 049] ([Mpa]KG[Trp(5-F)][Trp(5-F)]P[Leu(3R-OH)]Y[αMeP]C-NH2; linker 1-10 via mXylylene): the pIC50 in test [1] and in test [2] was 6.00 to 7.00 each time.
As to `C[C@H](O)[C@@H]1NC(=O)[C@@H]2CCCN2C(=O)[C@H](Cc2c[nH]c3ccc(F)cc23)NC(=O)[C@H](Cc2c[nH]c3ccc(F)cc23)NC(=O)CNC(=O)[C@H](CCCCN)NC(=O)CCSCc2cccc(c2)CSC[C@@H](C(N)=O)NC(=O)[C@]2(C)CCCN2C(=O)[C@H](Cc2ccc(O)cc2)NC1=O` [Compound 050] ([Mpa]KG[Trp(5-F)][Trp(5-F)]P[aThr]Y[αMeP]C-NH2; linker 1-10 via mXylylene), the pIC50 in test [1] and in test [2] was 4.30 to 4.68 in each case.
For the compound `C[C@@H](O)[C@H]1CC(=O)N[C@@H](Cc2ccc(O)cc2)C(=O)N2CCC[C@@]2(C)C(=O)N[C@H](C(N)=O)CSCc2cccc(c2)CSCCC(=O)N[C@@H](CCCCN)C(=O)NCC(=O)N[C@@H](Cc2c[nH]c3ccc(F)cc23)C(=O)N[C@@H](Cc2c[nH]c3ccc(F)cc23)C(=O)N2CCC[C@H]2C(=O)N1` [Compound 051] ([Mpa]KG[Trp(5-F)][Trp(5-F)]P[β3hT]Y[αMeP]C-NH2; linker 1-10 via mXylylene), the negative logarithm of the IC50 (pIC50) in test [1] is 7.00 to 10.00; in test [2], 7.00 to 9.96.
For `CC(C)[C@H]1NC(=O)[C@H](CCCCN)NC(=O)CCSCc2cccc(c2)CSC[C@@H](C(N)=O)NC(=O)[C@]2(C)CCCN2C(=O)[C@H](Cc2ccc(O)cc2)NC(=O)[C@H]([C@@H](C)O)NC(=O)[C@@H]2CCCN2C(=O)[C@H](Cc2c[nH]c3ccc(F)cc23)NC(=O)[C@H](Cc2c[nH]c3ccc(F)cc23)NC1=O` [Compound 052] ([Mpa]K[dV][Trp(5-F)][Trp(5-F)]PTY[αMeP]C-NH2; linker 1-10 via mXylylene), the pIC50 in test [1] and in test [2] was 4.92 to 6.00 in each case.
In the case of `CO[C@@H](C)[C@@H]1NC(=O)[C@@H]2CCCN2C(=O)[C@H](Cc2c[nH]c3ccc(F)cc23)NC(=O)[C@H](Cc2c[nH]c3ccc(F)cc23)NC(=O)[C@@H](C)NC(=O)[C@H](CCCCN)NC(=O)CCSCc2cccc(c2)CSC[C@@H](C(N)=O)NC(=O)[C@]2(C)CCCN2C(=O)[C@H](Cc2ccc(O)cc2)NC1=O` [Compound 053] ([Mpa]K[dA][Trp(5-F)][Trp(5-F)]P[aThr](Me)Y[αMeP]C-NH2; linker 1-10 via mXylylene), the pIC50 in test [1] and in test [2] was 4.92 to 6.00 throughout.
Consider `COc1ccc(C[C@@H]2NC(=O)[C@H]([C@@H](C)O)NC(=O)[C@@H]3CCCN3C(=O)[C@H](Cc3c[nH]c4ccc(F)cc34)NC(=O)[C@H](Cc3c[nH]c4ccc(F)cc34)NC(=O)[C@@H](C)NC(=O)[C@H](CCCCN)NC(=O)CCSCc3cccc(c3)CSC[C@@H](C(N)=O)NC(=O)[C@]3(C)CCCN3C2=O)cc1` [Compound 054] ([Mpa]K[dA][Trp(5-F)][Trp(5-F)]PTY(Me)[αMeP]C-NH2; linker 1-10 via mXylylene), for which the pIC50 was 7.00 to 10.00 in test [1] and 6.00 to 7.00 in test [2].
`C[C@H]1NC(=O)[C@H](C(C)(C)C(=O)O)NC(=O)[C@H](Cc2c[nH]c3ccc(F)cc23)NC(=O)[C@H](Cc2c[nH]c3ccc(F)cc23)NC(=O)CNC(=O)[C@H](CCCCN)NC(=O)CCSCc2cccc(c2)CSC[C@@H](C(N)=O)NC(=O)[C@]2(C)CCCN2C(=O)[C@H](Cc2ccc(O)cc2)NC1=O` [Compound 055] ([Mpa]KG[Trp(5-F)][Trp(5-F)][Asp(3,3-Me2)][dA]Y[αMeP]C-NH2; linker 1-10 via mXylylene): the pIC50 is 4.92 to 6.00 in test [1] and 4.30 to 4.68 in test [2].
In the same order, the values of `COc1ccc(C[C@@H]2NC(=O)[C@H]([C@H](C)O)NC(=O)[C@@H]3C[C@H](F)CN3C(=O)[C@H](Cc3c[nH]c4cc(F)ccc34)NC(=O)[C@H](Cc3c[nH]c4ccc(F)cc34)NC(=O)[C@@H](C)NC(=O)CCCCCNC(=O)c3ccc(cc3)C[C@@H](C(N)=O)NC(=O)[C@]3(C)CCCN3C2=O)cc1` [Compound 057] ([Ahx][dA][Trp(5-F)][Trp(6-F)][Pro(cis-4-F)][aThr]Y(Me)[αMeP][Phe(4-COOH)]-NH2; lactam N-9) are 4.92 to 6.00 and 4.30 to 4.68.
